Values after ≈ are worked out from the molar mass of the structure shown. Bounds are passed on as bounds.

Drawing on DBAASP, this text covers MIC for five compounds.

The assay relates to Escherichia coli ATCC 25922. The assay is described as follows: ≥ marks a high value that may be exact or a test limit, other limits are often not marked, values filed in µg/mL are converted to µM.
`CC[C@H](C)[C@H](NC(=O)[C@@H](NC(=O)[C@@H](NC(=O)CNC(=O)[C@H](C)NC(=O)[C@@H](NC(=O)[C@H](CC(N)=O)NC(=O)[C@@H](NC(=O)[C@H](C)NC(=O)[C@H](CC(C)C)NC(=O)[C@H](CC(N)=O)NC(=O)[C@H](CCCCN)NC(=O)[C@@H](NC(=O)[C@@H](NC(=O)[C@H](CO)NC(=O)[C@H](CC(C)C)NC(=O)[C@H](Cc1ccccc1)NC(=O)CN)[C@@H](C)O)C(C)C)[C@@H](C)O)C(C)C)[C@@H](C)O)C(C)C)C(=O)N[C@@H](CC(=O)O)C(=O)N[C@H](C(=O)N[C@@H](CC(C)C)C(=O)N[C@@H](CCCCN)C(=O)N[C@H]1CSSC[C@@H](C(=O)N[C@@H](CCCN=C(N)N)C(=O)N[C@@H](CO)C(=O)O)NC(=O)CNC(=O)CNC(=O)[C@H]([C@@H](C)O)NC(=O)[C@H](C(C)C)NC(=O)[C@H](CCCCN)NC1=O)[C@@H](C)O` [GFLSTVKNLATNVAGTVIDTLKCKVTGGCRS] returned an MIC of 120 µM (≈ 378 µg/mL).

`CC[C@H](C)[C@H](NC(=O)CNC(=O)[C@H](CCC(N)=O)NC(=O)[C@H](C)NC(=O)[C@@H](NC(=O)[C@H](CCCCN)NC(=O)[C@H](CCCCN)NC(=O)[C@H](CC(C)C)NC(=O)[C@H](C)NC(=O)[C@H](CC(N)=O)NC(=O)[C@H](CC(C)C)NC(=O)CN)C(C)C)C(=O)N[C@@H](Cc1cnc[nH]1)C(=O)N[C@@H](CCC(=O)O)C(=O)N[C@@H](C)C(=O)N[C@H](C(=O)N[C@@H](CCCCN)C(=O)N[C@@H](CC(C)C)C(=O)N[C@H](C(=O)N[C@@H](CC(N)=O)C(=O)N[C@@H](CC(N)=O)C(=O)N[C@@H](Cc1cnc[nH]1)C(=O)N[C@H](C(=O)N[C@@H](CCC(N)=O)C(N)=O)C(C)C)[C@@H](C)CC)[C@@H](C)CC` [GLNALKKVAQGIHEAIKLINNHVQ] came in with an MIC of 11.3 µM (≈ 29.5 µg/mL). The figure for `CC[C@H](C)[C@H](NC(=O)[C@H](C)NC(=O)CNC(=O)[C@H](C)NC(=O)[C@H](CCCCN)NC(=O)[C@H](CO)NC(=O)[C@H](C)NC(=O)[C@H](CCSC)NC(=O)CN)C(=O)N[C@@H](C)C(=O)NCC(=O)N[C@@H](CCCCN)C(=O)N[C@H](C(=O)N[C@@H](C)C(=O)N[C@@H](CCCCN)C(=O)N[C@H](C(=O)N[C@@H](C)C(=O)N[C@@H](Cc1c[nH]c2ccccc12)C(=O)N[C@@H](CCCCN)C(=O)N[C@@H](C)C(=O)N[C@@H](CC(C)C)C(=O)NCC(=O)NCC(=O)N[C@@H](CS)C(N)=O)C(C)C)[C@@H](C)CC` [GMASKAGAIAGKIAKVAWKALGGC] is 4.42 µM (≈ 9.98 µg/mL); for `CC[C@H](C)[C@H](NC(=O)[C@H](CCCN=C(N)N)NC(=O)[C@H](CCCCN)NC(=O)[C@H](CCSC)NC(=O)[C@H](CCSC)NC(=O)CN)C(=O)N[C@@H](CCCCN)C(=O)N[C@H](C(=O)N[C@@H](CCSC)C(=O)N[C@@H](CCSC)C(N)=O)[C@@H](C)O` [GMMKRIKTMM] it is above 200 µM; for `CC[C@H](C)[C@H](NC(=O)[C@H](Cc1c[nH]c2ccccc12)NC(=O)[C@H](Cc1c[nH]c2ccccc12)NC(=O)[C@H](Cc1c[nH]c2ccccc12)NC(=O)[C@H](Cc1c[nH]c2ccccc12)NC(=O)[C@H](CCCCN)NC(=O)[C@H](CCCCN)NC(=O)[C@H](CCCCN)NC(=O)[C@@H](N)CCCCN)C(N)=O` [KKKKWWWWI] it is 5.76 µM (≈ 7.99 µg/mL).
